Test results reported in patent publication US8614200B2, “Compounds, compositions and methods for treating ocular conditions” (Chimerix, Inc., priority 2009, dated 2013).

Columns and labels:
Assay type in all cases: cell-based
CMV = test: in vitro antiviral activity against CMV; conditions: for EC50: Human betaherpesvirus 5, CMV, in vitro
EBV = test: in vitro antiviral activity against EBV
HHV-6 = test: in vitro antiviral activity against HHV-6; conditions: for EC50: HHV-6, in vitro
VZV = test: in vitro antiviral activity against VZV
HSV-1 = test: in vitro antiviral activity against HSV-1; conditions: CMX001 versus cidofovir EC50, HSV-1

Row | SMILES | EC50 (CMV) [nM] | EC50 (EBV; human gammaherpesvirus 4, EBV, in vitro) [nM] | EC50 (HHV-6) [nM] | EC50 (VZV; Human alphaherpesvirus 3, VZV, in vitro) [nM] | Enhanced Activity (CMV; CMX001 versus cidofovir EC50, CMV) | Enhanced Activity (EBV; CMX001 versus cidofovir EC50, EBV) | Enhanced Activity (HHV-6; CMX001 versus cidofovir EC50, HHV-6) | Enhanced Activity (HSV-1) | Enhanced Activity (VZV; CMX001 versus cidofovir EC50, VZV)
1 | Nc1ccn(C[C@@H](CO)OCP(=O)(O)O)c(=O)n1 [Cidofovir, cidofovir, reference compound] | 400 | > 108000 | 5400 | 500 | – | – | – | – | –
2 | CCCCCCCCCCCCCCCCOCCCOP(=O)(O)CO[C@H](CO)Cn1ccc(N)nc1=O [CMX001] | 1 | – | 7 | – | 400 | >2700 | 771 | 92 | 125
